From patent US11013710B2, “Synergistic compositions of bioactive agents for optimizing cellular health” (CELAGENEX RESEARCH (INDIA) PVT. LTD., priority 2018, dated 2021)

Tests used:
[1] = system: HepG2 cells; experiment: DNA fragmentation (DNA ladder assay) in HepG2 cells; assay type: cell-based, Human
Method: FIG. 3 depicts DNA ladder assay of test substances on HepG2 cell line; L=100 bp Ladder, Lane 1=AAPH (1 mM), Lane 2=cell control, Lane 3=G3 (250 μg/ml), Lane 4=G4(250 μg/ml), Lane 5=G5 (5:125-250 μg/ml), Lane 6=G3+AAPH, Lane 7=G4+AAPH, Lane 8=G5+AAPH
HepG2 cells (3×10^6/ml) were seeded into 60 mm petri dishes and incubated at 37° C. with 5% CO2 atmosphere for 24 h. The cells were washed with medium and were treated with extract, standard substance and incubated at 37° C., 5% CO2 for 24 hrs. At the incubation time ended, the chromosomal DNA of cancer cells was prepared with G Biosciences, USA apoptotic DNA ladder kit. Total genomic DNA was extracted and resolved on a 1% agarose gel. Apoptotic DNA fragmentation was visualized by ethidium bromide staining under UV transilluminator and photographed. (FIG. 3)

[2] = system: IL-6; experiment: Serum IL-6 levels in carrageenan paw edema rats; assay type: in vivo, Rat; conditions: for IL-6: rat serum after paw volume measurement, Mean±SEM; for Serum interleukin-6 compared with positive control (G2) / Percentage inhibition over control (serum IL-6): rat serum; for Serum interleukin-6 compared with positive control (G2): result in words; for Percentage inhibition over control (serum IL-6): vs positive control
Method: (§1) Acute anti inflammatory activity was measured using carrageenan induced rat paw edema model. Acute inflammation was induced by the sub planter administration of 0.1 ml of 1% carrageenan (0.9% NaCl solution) in the right hind paw of the rats. Group 1 was treated with normal saline. Group 2 positive control was treated with normal saline (with paw edema induction). Group 3, Group 4 and Group 5 were treated with test substance (G1—0.512 mg/kg, G2—12.33 mg/kg and G3-0.512 mg/kg+12.33 mg/kg bw) respectively. Excluding control group, all groups were pretreated 1 hr before eliciting paw edema. The linear paw circumference was measured at Time intervals: 0, 30, 60, 120, 180 and 240 mins. The perimeter of paw was measured by using vernier calipers. After the completions of the paw volume measurement animals were anesthetized and blood was collected for biochemical parameter analysis. The values were expressed in Mean±SEM. The significance of in vivo data was analyzed by One way anova followed by Dunnet test. P<0.05 was considered as statistically significant

[3] = system: HepG2 cell line; experiment: In vitro cytotoxicity (MTT) against HepG2 cell line; assay type: cell-based, Human; conditions: 72 h
Method: In-vitro cytotoxicity of the nutrients, G3, G4 and G5 were tested against HepG2 cell line. Nutrients were taken at concentrations ranging from 1000 μg/ml to 62.5 μg/ml to determine the percentage growth inhibition of individual substance on HepG2 cell line. The samples G3 and G4 produced a CTC50 value of above 1000 μg/ml. […] [Journal of Immunological Methods, 1986; 89:271-277].
The in vitro cytotoxicity was performed for samples G3, G4 and G5 on HepG2 to find toxic concentration and to determine the apoptotic activity of G3, G4 and G5.
(§2) For cytotoxicity studies, 10 mg of test substance was separately dissolved and volume was made up with MEM supplemented with 2% inactivated FBS to obtain a stock solution of 1 mg/ml concentration and sterilized by 0.22μ syringe filtration. Serial two fold dilutions were prepared from this for carrying out cytotoxic studies.
(§3) HepG2 (Human Hepatocyte) cell line was procured from National Centre for Cell Sciences (NCCS), Pune, India. Stock cells were cultured in MEM supplemented with 10% inactivated Fetal Bovine Serum (FBS), penicillin (100 IU/ml), streptomycin (100 μg/ml) and amphotericin B (5 μg/ml) in an humidified atmosphere of 5% CO2 at 7° C. until confluent. The cells were dissociated with TPVG solution (0.2% trypsin, 0.02% EDTA, 0.05% glucose in PBS). The stock cultures were grown in 25 cm^2 culture flasks and all experiments were carried out in 96 microtitre plates (Tarsons India Pvt. Ltd., Kolkata, India).
The monolayer cell culture was trypsinized and the cell count was adjusted to 100,000 cells/ml using DMEM-HG containing 10% FBS. To each well of the 96 well microtitre plate, 0.1 ml of the diluted cell suspension was added. After 24 h, when a partial monolayer was formed, the supernatant was flicked off, washed the monolayer once with medium and 100 μl of different test concentrations of test substances were added on to the partial monolayer in microtitre plates. The plates were then incubated at 37° C. for 3 days in 5% CO2 atmosphere, and microscopic examination was carried out and observations were noted every 24 h interval. After 72 h, the substance solutions in the wells were discarded and 50 μl of MTT in PBS was added to each well. The plates were gently shaken and incubated for 3 h at 37° C. in 5% CO2 atmosphere. The supernatant was removed and 100 μl of propanol was added and the plates were gently shaken to solubilize the formed formazan. The absorbance was measured using a microplate reader at a wavelength of 540 nm. The percentage growth inhibition was calculated using the standard formula and concentration of test substance needed to inhibit cell growth by 50% (CTC50) values is generated from the dose-response curves for each cell line.
as §2, with “substance powder” for “substance”, “with DMEM” for “with MEM”, “of 10” for “of 1”
as §3, with “DMEM” for “MEM”, “37°” for “7°”, “cm2” for “cm^2”
The monolayer cell culture was trypsinized and the cell count was adjusted to 100,000 cells/ml using medium containing 10% FBS. To each well of the 96 well microtitre plate, 0.1 ml of the diluted cell suspension was added. […]

[4] = system: Nrf2; experiment: In vitro gene expression of Nrf2 (RT-PCR) in HepG2; assay type: cell-based, Human; conditions: HepG2, 250 μg/ml; cell control 1.00
Method: Nrf2 were estimated for the test substance by gene expression method, where the level of expression of Nrf2 expression on Human Hepatocytes (HepG2) was determined with respect to untreated HepG2 cells. The HepG2 cells treated with drug were subjected to cell lysis by treating with Tri-extract reagent. Chloroform was added, to isolate the total RNA from the sample and subjected for centrifugation. […] After the incubation followed by centrifugation, appropriate volume of ethanol was added to resuspend the pellet. After incubation and centrifugation, the pellet was air dried and appropriate volume of TAE buffer was added. […] The cDNA thus synthesized was taken up for Polymerase chain reaction (PCR) for the amplification of Nrf2 and Glyceraldehyde 3-phosphate dehydrogenase GAPDH (internal control). The mRNA expression levels of Nrf2 were determined using semi-quantitative reverse transcriptase-polymerase chain reaction (RT-PCR). 50 μl of the reaction mixture was subjected to PCR for amplification of Nrf2. cDNAs using specifically designed primers procured from Eurofins, India and as an internal control GAPDH (House keeping gene) was co-amplified with each reaction. Nrf2: 95° C. for 5 min followed by 35 cycles of denaturation at 95° C. for 30 seconds, annealing Tm for 30 seconds and extension at 72° C. for 45 seconds. This was followed by final extension at 72° C. for 10 min.

[5] = system: carrageenan induced rat paw edema; experiment: Carrageenan induced rat paw edema model (acute anti-inflammatory activity); assay type: in vivo; conditions: for % inhibition of paw edema at 6th hr.: pretreated 1 hr before, L-EGT 0.512 mg/kg, NMN chloride 12.33 mg/kg, combination 0.512+12.33 mg/kg bw, vs positive control; for paw edema compared with Positive control group (G2): result in words
Method: as §1, with “In study thirty (30) rats, were divided into total […] groups. […] G3-G4 groups are referred as test substances. Acute anti” for “Acute anti”, “paw edema. […] The perimeter” for “paw edema. The linear paw circumference was measured at Time intervals: 0, 30, 60, 120, 180 and 240 mins. The perimeter”, “analysis. The anti-inflammatory activity was calculated by following formula % inhibition of edema=((T−T0)/T)×100 T: Thickness of paw in positive control group T0: Thickness of paw edema in the test compound treated groups. The values were” for “analysis. The values were”

[6] = system: TNF-Alpha; experiment: Serum TNF-Alpha levels in carrageenan paw edema rats; assay type: in vivo, Rat; conditions: for TNF-Alpha: rat serum after paw volume measurement, Mean±SEM; for Serum TNF-Alpha compared with positive control (G2) / Percentage inhibition over control (serum TNF-Alpha): rat serum; for Serum TNF-Alpha compared with positive control (G2): result in words; for Percentage inhibition over control (serum TNF-Alpha): vs positive control
Method: as §1

Molecule | DNA fragmentation ([1]; HepG2, 250 μg/ml, 24 hrs) | IL-6 [2] [pg/mL] | Serum interleukin-6 compared with positive control (G2) [2] | Percentage inhibition over control (serum IL-6) [2] [%] | Regulation in Terms of Folds (gene expression level of Nrf2 normalized to GAPDH) [4] [Folds] | % inhibition of paw edema at 6th hr. [5] [%] | paw edema compared with Positive control group (G2) [5] | TNF-Alpha [6] [pg/mL] | Serum TNF-Alpha compared with positive control (G2) [6] | Percentage inhibition over control (serum TNF-Alpha) [6] [%] | further results
C[N+](C)(C)[C@@H](Cc1c[nH]c(=S)[nH]1)C(=O)[O-] [L-Ergothioneine] | did not exhibit any fragmentation of DNA | 85.25 ± 0.30 | significantly decreased | 15.74 | >1.0 | 35.08 | significant decreases paw edema | 201.5 ± 1.96 | significantly decreased | 13.21 | inhibition at 62.5 µg/mL ([3]; Homo sapiens, Test Conc. 62.5 μg/ml): 6.62 ± 0.88%; inhibition at 125 µg/mL ([3]; Homo sapiens, Test Conc. 125 μg/ml): 11 ± 1.31%; inhibition at 250 µg/mL ([3]; Homo sapiens, Test Conc. 250 μg/ml): 19 ± 1.05%; inhibition at 1000 µg/mL ([3]; Homo sapiens, Test Conc. 1000 μg/ml): 30 ± 1.52%; IC50 ([3]; Homo sapiens, concentration needed to inhibit cell growth by 50%, read-out: CTC 50 in μg/ml): > 1000 µg/mL
Nicotinamide mononucleotide chloride | did not exhibit any fragmentation of DNA | 79.55 ± 0.95 | significantly decreased | 21.34 | >1.0 | 40.80 | significant decreases paw edema | 185.2 ± 4.37 | significantly decreased | 20.18 | % Inhibition ([3]; Test Conc. 62.5 μg/ml): 5.26 ± 1.5%; % Inhibition ([3]; Test Conc. 125 μg/ml): 11.15 ± 3.32%; % Inhibition ([3]; Test Conc. 250 μg/ml): 17.56 ± 1.16%; % Inhibition ([3]; Test Conc. 500 μg/ml): 24.19 ± 1.59%; % Inhibition ([3]; Test Conc. 1000 μg/ml): 31.49 ± 0.79%
CC(C)(N=NC(C)(C)C(=N)N)C(=N)N.Cl.Cl [AAPH, 2,2′-azobis(2-amidinopropane)dihydrochloride, reference compound] | – | – | – | – | – | – | – | – | – | – | DNA fragmentation ([1]; HepG2, AAPH (1 mM)): showed a smear in the gel indicating the DNA fragmentation
